Source: ChEMBL document CHEMBL1201862, “PubChem BioAssay data set” (2004)
Calls of active or inactive are those of the source.

Experiments:
[1] = luciferase reporter signal suppression in cells – H4 neuroglioma cells, luminescence, dose response (AID 1990); assay type: functional, cell-based
[2] = Luminescence Cell-Based Dose Response HTS to Identify Inhibitors of 5'UTR Stem-Loop Driven Prion Protein mRNA Translation in H4 Neuroglioblastoma Cells. [Related pubchem assays: 1827 (Project Summary), 1813 (Primary HTS)]; assay type: functional
[3] = alpha-synuclein stem-loop luciferase translation blockers – H4 neuroglioma cells, luminescence, confirmation (AID 1988); assay type: functional, cell-based
[4] = Luminescence Cell-Based Dose Retest to Confirm Inhibitors of Cancer Stem Cells. [Related pubchem assays (depositor defined):AID2717, AID2721]; assay type: functional; conditions: Homo sapiens
[5] = tested on: INS1; assay: INS-1E survival protection against cytokine death – cell-based, luminescence, retest, dose response (AID 449756); assay type: functional; conditions: Rattus norvegicus;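 note: cell death triggered by IL-1 beta plus TNF-alpha plus IFN-gamma mixture; protective hits raise ATP signal compared with cytokine alone wells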
[6] = tested on: H9c2; assay: cells; assay type: functional, cell-based; conditions: Rattus norvegicus, H9c2, Myocardium;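 note: confirmatory concentration-response retest of ultra-high-throughput screening hits for modulation of myocardial damage; cell death induced by hydrogen peroxide oxidative stress; compound pretreatment for 60 min then peroxide exposure for 2 h; potency is for protecting the cells against peroxide damage rather than for killing them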
[7] = Trypanosoma cruzi growth suppression in host cells – NIH3T3 host cells, beta-gal luminescence, confirmation (AID 2044); assay type: functional, cell-based;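 note: intracellular parasites grown in NIH/3T3 mouse fibroblasts as host cells; luminescent beta-galactosidase reporter signal from transgenic T. cruzi replicating inside host cells; inhibitors lower the luminescence signal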
[8] = NIH3T3 cell viability loss – ATP luminescence, mouse fibroblasts, counter-screen, dose response (AID 2010); assay type: functional, cell-based;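 note: cells exposed to compound for about 90 hours before reading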
[9] = molecular target: FAD-linked sulfhydryl oxidase ALR (Homo sapiens, UniProt P55789); assay: ALR-catalysed DTT oxidation blockers – biochemical, H2O2 detection, luminescence, cherry-pick, dose response (AID 493248)
FAD-linked sulfhydryl oxidase ALR, sequence (P55789 whole entry): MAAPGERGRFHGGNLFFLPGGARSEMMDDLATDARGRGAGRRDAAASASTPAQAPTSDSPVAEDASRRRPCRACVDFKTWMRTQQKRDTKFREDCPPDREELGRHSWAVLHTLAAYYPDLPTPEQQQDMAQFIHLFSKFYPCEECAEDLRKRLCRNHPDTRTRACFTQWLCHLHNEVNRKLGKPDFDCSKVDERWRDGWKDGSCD

[10] = molecular target: T1, Cytochrome P450 1A2 (Homo sapiens, UniProt P05177);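 note: PubChem cytochrome P450 panel assay, CYP1A2 panel member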
T1 sequence (P05177 whole entry): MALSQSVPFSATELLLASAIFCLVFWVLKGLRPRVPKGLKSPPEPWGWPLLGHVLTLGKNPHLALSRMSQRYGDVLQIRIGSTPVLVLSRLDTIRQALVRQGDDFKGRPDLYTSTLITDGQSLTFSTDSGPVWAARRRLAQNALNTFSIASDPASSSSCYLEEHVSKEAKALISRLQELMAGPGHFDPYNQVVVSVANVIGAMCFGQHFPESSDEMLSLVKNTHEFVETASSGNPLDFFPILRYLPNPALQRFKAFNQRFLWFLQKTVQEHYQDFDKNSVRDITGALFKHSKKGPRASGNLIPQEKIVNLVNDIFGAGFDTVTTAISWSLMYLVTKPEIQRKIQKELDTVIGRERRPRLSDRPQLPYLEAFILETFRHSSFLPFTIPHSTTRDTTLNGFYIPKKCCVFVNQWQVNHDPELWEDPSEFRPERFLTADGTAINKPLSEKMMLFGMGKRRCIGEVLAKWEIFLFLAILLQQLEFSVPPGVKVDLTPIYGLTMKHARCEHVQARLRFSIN

[11] = molecular target: Cytochrome P450 3A4 (Homo sapiens, UniProt P08684);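 note: CYP3A4 tested as one member of a cytochrome P450 panel screen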
Cytochrome P450 3A4, sequence (P08684 whole entry): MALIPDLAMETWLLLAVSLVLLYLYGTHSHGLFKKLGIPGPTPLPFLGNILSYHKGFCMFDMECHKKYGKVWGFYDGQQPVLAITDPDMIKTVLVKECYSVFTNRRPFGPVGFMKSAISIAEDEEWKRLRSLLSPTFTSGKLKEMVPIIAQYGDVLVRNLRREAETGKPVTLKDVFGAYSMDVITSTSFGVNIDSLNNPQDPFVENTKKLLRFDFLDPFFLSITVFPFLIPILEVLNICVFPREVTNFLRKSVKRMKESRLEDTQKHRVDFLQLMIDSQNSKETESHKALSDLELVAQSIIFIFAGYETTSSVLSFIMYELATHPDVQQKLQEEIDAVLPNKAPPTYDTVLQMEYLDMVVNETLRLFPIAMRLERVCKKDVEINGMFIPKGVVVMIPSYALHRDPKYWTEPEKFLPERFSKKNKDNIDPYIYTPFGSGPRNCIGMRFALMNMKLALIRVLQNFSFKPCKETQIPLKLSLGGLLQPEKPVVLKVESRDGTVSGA

[12] = molecular target: Cytochrome P450 2C9 (Homo sapiens, UniProt P11712)
Cytochrome P450 2C9, sequence (P11712 whole entry): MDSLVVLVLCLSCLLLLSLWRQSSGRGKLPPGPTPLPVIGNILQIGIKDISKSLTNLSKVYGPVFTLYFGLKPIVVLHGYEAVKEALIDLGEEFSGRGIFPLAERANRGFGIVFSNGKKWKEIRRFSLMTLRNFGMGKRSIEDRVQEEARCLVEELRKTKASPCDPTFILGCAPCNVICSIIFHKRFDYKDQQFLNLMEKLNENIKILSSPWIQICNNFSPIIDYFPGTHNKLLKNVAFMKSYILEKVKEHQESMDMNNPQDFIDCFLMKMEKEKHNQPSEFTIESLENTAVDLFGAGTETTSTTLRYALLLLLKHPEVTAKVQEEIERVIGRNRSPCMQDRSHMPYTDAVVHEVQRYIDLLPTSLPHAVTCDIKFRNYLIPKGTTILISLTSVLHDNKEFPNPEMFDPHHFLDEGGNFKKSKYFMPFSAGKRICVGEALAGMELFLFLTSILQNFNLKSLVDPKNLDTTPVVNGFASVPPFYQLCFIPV

[13] = molecular target: Cytochrome P450 2D6 (Homo sapiens, UniProt P10635);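 note: CYP2D6 member of a cytochrome P450 panel assay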
Cytochrome P450 2D6, sequence (P10635 whole entry): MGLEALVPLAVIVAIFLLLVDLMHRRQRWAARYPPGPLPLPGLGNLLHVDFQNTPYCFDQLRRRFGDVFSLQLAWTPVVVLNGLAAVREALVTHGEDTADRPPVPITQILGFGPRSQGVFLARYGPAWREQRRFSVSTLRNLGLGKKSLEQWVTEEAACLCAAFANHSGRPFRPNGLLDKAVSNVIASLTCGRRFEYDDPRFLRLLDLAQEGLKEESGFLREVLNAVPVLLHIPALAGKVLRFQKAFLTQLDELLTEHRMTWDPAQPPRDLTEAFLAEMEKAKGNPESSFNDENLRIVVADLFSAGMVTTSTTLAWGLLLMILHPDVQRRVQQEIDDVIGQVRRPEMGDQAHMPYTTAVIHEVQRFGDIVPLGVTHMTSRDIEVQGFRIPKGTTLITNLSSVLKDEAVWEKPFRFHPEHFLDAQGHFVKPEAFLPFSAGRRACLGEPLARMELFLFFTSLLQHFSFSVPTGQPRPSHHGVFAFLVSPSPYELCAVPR

[14] = tested on: Streptococcus sp. 'group A'; assay: Streptococcus pyogenes SK(-)GAS viability under kanamycin – luminescence, BacTiterGlo, confirmation, counter-screen for streptokinase expression inhibitor project, dose response (AID 1900); assay type: functional, organism-based
[15] = molecular target: T2, Streptokinase A (Streptococcus pyogenes serotype M1, UniProt P10520); assay: viability-normalized secreted streptokinase activity reduction – plasminogen activation absorbance, OD405, dose response (AID 1914); assay type: functional, Streptococcus pyogenes M1 GAS;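 note: secreted streptokinase activity via plasminogen activation per viability signal from cell pellet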
T2 sequence (P10520 whole entry): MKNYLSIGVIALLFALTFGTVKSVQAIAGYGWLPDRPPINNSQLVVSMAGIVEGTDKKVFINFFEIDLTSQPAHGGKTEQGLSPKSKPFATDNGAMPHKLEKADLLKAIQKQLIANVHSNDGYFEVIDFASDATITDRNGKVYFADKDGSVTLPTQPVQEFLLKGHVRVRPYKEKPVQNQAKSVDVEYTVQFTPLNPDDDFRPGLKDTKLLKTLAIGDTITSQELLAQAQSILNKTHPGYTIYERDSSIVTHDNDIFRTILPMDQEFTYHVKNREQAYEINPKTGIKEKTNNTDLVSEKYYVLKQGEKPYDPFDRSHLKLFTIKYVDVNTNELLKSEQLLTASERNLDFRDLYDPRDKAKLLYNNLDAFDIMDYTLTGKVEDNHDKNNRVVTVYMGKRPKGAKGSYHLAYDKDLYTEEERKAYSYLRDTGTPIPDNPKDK

[16] = tested on: Streptococcus; assay: GAS UMAA2166 growth inhibition – luminescence, BacTiterGlo, counter-screen for streptokinase expression inhibitor project, dose response (AID 1915); assay type: functional, organism-based;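 note: potency for reduction of bacterial viability or growth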

With `CCOC(=O)c1[nH]c2ccccc2c1NC(=O)c1ccc(S(=O)(=O)N2CCCCC2)cc1` the EC50 [1] was 18.7 µM (active), the EC50 [2] was > 120 µM (not active) and the EC50 [3] was 83.1 µM (active).
For `CC(=O)Oc1ccc(C(=O)Nc2ccc(C3(C#N)CCCC3)cc2)cc1`, the AC50 [4] was 1.83 µM (active).
In the case of `CCN1CCN(c2cc3nc(C)n(Cc4ccccc4)c(=O)c3cc2NC(=O)c2ccccc2F)CC1`, the EC50 [1] was 8.04 µM (active), the EC50 [2] was 8.79 µM (active) and the EC50 [3] was 8.28 µM (active).
With `O=C(Nc1ncnc2c1C(c1ccccc1)c1c(ccc3ccccc13)O2)c1ccccc1` (stereo unspecified) the AC50 [5] was 20.6 µM (active).
With `Cc1c(C(=O)NCCCN2CCCCC2)oc2ccc3c(c12)C(O)CC1(CCCCC1)O3` (stereo unspecified) the EC50 [1] was > 120 µM (not active), the EC50 [2] was > 120 µM (not active) and the EC50 [3] was > 120 µM (not active).
In the case of `COc1ccc(-c2cc(C(=O)Nc3ccccc3N3CCOCC3)c3ccccc3n2)cc1OC`, the IC50 [6] was > 79 µM (inactive).
With `CCC[N+]1(CC#CCC(c2ccccc2)c2ccccc2)CCCCC1` the EC50 [7] was 0.767 µM (active), the EC50 [8] was > 60 µM (not active) and the AC50 [5] was 1.67 µM (active).
In the case of `N#Cc1c(-c2ccco2)cc(-c2ccccn2)nc1N`, the IC50 [6] was 14.3 µM (active).
In the case of `c1ccc2c(CCNc3ncnc4nc[nH]c34)c[nH]c2c1`, the AC50 [9] was 3.85 µM (active).
In the case of `Cc1cccc(C(C)C)c1NC(=O)C(C)OC(=O)Cc1nnc(O)c2ccccc12` (stereo unspecified), the IC50 [6] was 21.1 µM (active).
For `Cc1nc2cncnc2n(-c2ccccc2)c1=O`, the AC50 [10] was 10 µM (inconclusive), the AC50 [11] was 12.6 µM (inconclusive) and the AC50 [12] was 39.8 µM (inconclusive).
With `CCOc1cccc(-c2nn3c(-c4ccco4)nnc3s2)c1` the IC50 [6] was > 79 µM (inactive).
In the case of `CC(C)c1cc(-c2cc(-c3ccccc3)on2)nc(NC2CCCC2)n1`, the AC50 [4] was 10.1 µM (active).
For `O=C(NCCNS(=O)(=O)c1ccccc1Cl)c1cc(OCC(F)(F)F)ccc1OCC(F)(F)F`, the AC50 [13] was 22.4 µM (inconclusive), the AC50 [10] was 31.6 µM (inconclusive) and the AC50 [12] was 12.6 µM (inconclusive).
In the case of `O=C(NCc1ccco1)C(c1ccccc1)N(C(=O)Cc1cccs1)c1ccccc1F` (stereo unspecified), the IC50 [6] was > 79 µM (inactive).
In the case of `COc1ccc(C(=O)N2CCC3(CC2)CCN(c2ccncc2)CC3)cc1`, the AC50 [13] was 15.8 µM (inconclusive), the AC50 [10] was 39.8 µM (inconclusive) and the AC50 [11] was 15.8 µM (inconclusive).
For `Cn1c(=O)[nH]c(=O)c2c1nc(N1CCC(Cc3ccccc3)CC1)n2Cc1ccccc1`, the EC50 [1] was 19.4 µM (active), the EC50 [14] was 4.39 µM (active) and the EC50 [2] was > 120 µM (not active). The EC50 [3] was 56.4 µM (active), the EC50 [15] was 18 µM (active) and the EC50 [16] was > 150 µM (not active).
For `Cn1c(=O)n(CCc2ccccc2)c(=O)c2c1nc1n2CCN1Cc1ccco1`, the IC50 [6] was 10.5 µM (active).
In the case of `COC(=O)c1ccc(CSc2nc(O)c3cnn(-c4ccc(C)cc4)c3n2)o1`, the EC50 [1] was 23.9 µM (active), the EC50 [2] was > 120 µM (not active) and the EC50 [3] was > 120 µM (not active).
In the case of `Cn1c(-c2ccc3nc(N)sc3c2)nc2cc(N)ccc21`, the AC50 [9] was 0.384 µM (active).
